Assay results taken from article PMC6917776, “Discovery of a chemical probe for PRDM9” (Nature Communications, 2019).

Test system: H3K4me3 at known PRDM9 binding loci and control TSS loci
Test: ChIP-qPCR of H3K4me3 in PRDM9-transfected HEK293T cells
Type: cell-based, human
Conditions: Replicate 1; for 2^-dCq (H3K4me3 ChIP relative to H3 ChIP): Figure 7 C, Antibody H3K4me3; for 2^-dCq: H3K4me3 ChIP normalised to H3; for dCq (IP-Input): H3K4me3 antibody
Experimental: ChIP-qPCR assays were then conducted on known PRDM9 binding loci[26]. Ectopic expression of PRDM9^WT increased trimethylation of H3K4 (H3K4me3) at previously described PRDM9-specific intragenic and intergenic regions[26] (Fig. 7; Supplementary Fig. 12). […] The observed increases in H3K4me3 levels at intragenic and intergenic regions are therefore due directly to PRDM9 PR domain-dependent methylation activity, rather than through recruitment of other H3K4 methyltransferases or other indirect mechanisms.
ChIP qPCR analyses of H3K4me3 methylation levels of known PRDM9-bound loci and control loci. […] Concentrations used (µM) are indicated below each plot. (a–d) represent reported loci of PRDM9 methylation; (e, f) are transcriptional start sites (TSSs) which are not known loci of PRDM9 methylation. Data are normalized to total H3 and are presented as the mean ± upper and lower limits from two replicates. Representative plots of two independent experiments are shown in this figure. The coordinates and the genomic features associated with the assayed loci are indicated above each plot. Left Tailed Student's t-tests were performed by comparing DMSO (0 µM) treated cells to compound treated cells that have been transfected with the same plasmids. *p-value < 0.05 and **p-value < 0.01. Note that here we show a representative of two independent experiments (mean ± s.d of technical replicates) for our ChIP-qPCR experiments. Data obtained using this technique are inherently noisy due to stochastic differences in gene activity/histone positioning. Data are thus typically presented as representative rather than averaged. Source data are provided as a Source Data file.
HEK293T cells were transfected with 37.5 μg empty pcDNA3.1(+) vector (Invitrogen), or the same vector expressing either wild-type PRDM9 (PRDM9^WT) or a catalytically dead PRDM9 mutant (PRDM9^Mut) and 75 μL of Lipofectamine 2000 (Invitrogen) in 6 mL of Opti-MEM (GIBCO) for 48 h. […] ChIP assays were then performed as previously described. Briefly, cells were fixed in 1% formaldehyde and the fixation reaction was quenched in a final concentration of 0.1 M glycine. Cell pellets were first lysed in LB1 (50 mM HEPES-KOH pH 7.5, 140 mM NaCl, 1 mM EDTA, 10% Glycerol, 0.5% Igepal, 0.25% TritonX), washed once in LB2 Buffer (10 mM Tris-HCl pH 8, 200 mM NaCl, 1 mM EDTA, 0.5 mM EGTA) and finally sonicated in LB3 buffer (10 mM Tris-HCl pH 8, 100 mM NaCl, 1 mM EDTA, 0.5 mM EGTA, 0.1% Sodium deoxycholate, 0.5% N-laurosylsarcosine) using a bioruptor (Diagenode). Thereafter, 50 μg of chromatin was subjected to ChIP using the following antibodies purchased from Abcam: α-H3K4me3 (1:200, ab8580, lot:GR3207339-1) and α-H3 (1:250, ab1791, lot:GR300978-4). After extensive washing in RIPA wash buffer (50 mM HEPES-KOH pH 7.6, 100 mM LiCl, 1 mM EDTA, 1% Igepal, 0.7% Sodium Deoxycholate), DNA was eluted from beads. The eluted DNA was treated with RNase A and Proteinase K and purified using the QIAGEN PCR purification kit. qPCR was then carried out targeting the indicated loci (Supplementary Table 3). Upper and lower limits were defined by |2^−(dCq±s) − 2^−(∆Cq)|, where s = √((Standard deviation of Input Cq)^2 + (Standard deviation of Target Cq)^2). […]
formation. ChIP qPCR analyses of H3K4me3 methylation levels at known PRDM9-bound and control loci. Cells transfected with empty vector (negative control) or vectors overexpressing either wild-type PRDM9 (PRDM9 WT) or catalytically dead PRDM9 (PRDM9 MUT) were […]
Panels a-d represent reported loci of […]
(1 picture or pasted object on this page, not shown here)
PRDM9 methylation; e-f are TSSs which are not known sites of PRDM9 methylation. Data are normalized to total H3 and are presented as the mean ± upper and lower limits from two […]

[1] = chr2:40281930-40282015 Intragenic (SLC8A1-AS1), Empty Vector
[2] = chr2:40281930-40282015 Intragenic (SLC8A1-AS1), PRDM9
[3] = chr2:40281930-40282015 Intragenic (SLC8A1-AS1), PRDM9_Cat.Dead
[4] = chr2:128811847-128811944 (Intergenic), Empty Vector
[5] = chr2:128811847-128811944 (Intergenic), PRDM9
[6] = chr2:128811847-128811944 (Intergenic), PRDM9_Cat.Dead
[7] = chr3:165514798-165514911 Intragenic (BCHE), Empty Vector
[8] = chr3:165514798-165514911 Intragenic (BCHE), PRDM9
[9] = chr3:165514798-165514911 Intragenic (BCHE), PRDM9_Cat.Dead
[10] = chr8:49932778-49932856 (Intergenic), Empty Vector

COc1cc(OC)cc(-c2noc(N3CCN(C)C4(CCN(c5ccnc(C)c5)CC4)C3)n2)c1 [MRK-740]
2^-dCq (H3K4me3 ChIP relative to H3 ChIP) (chr2:40281930-40282015 Intragenic (SLC8A1-AS1), Plasmid Empty Vector, Drug Conc. 2.5): 0.4152 | 2^-dCq (H3K4me3 ChIP relative to H3 ChIP) (chr2:40281930-40282015 Intragenic (SLC8A1-AS1), Plasmid Empty Vector, Drug Conc. 5): 0.3238 | 2^-dCq (H3K4me3 ChIP relative to H3 ChIP) (chr2:40281930-40282015 Intragenic (SLC8A1-AS1), Plasmid Empty Vector, Drug Conc. 10): 0.507 | 2^-dCq (H3K4me3 ChIP relative to H3 ChIP) (chr2:40281930-40282015 Intragenic (SLC8A1-AS1), Plasmid PRDM9WT, Drug Conc. 2.5): 3.2145 | 2^-dCq (H3K4me3 ChIP relative to H3 ChIP) (chr2:40281930-40282015 Intragenic (SLC8A1-AS1), Plasmid PRDM9WT, Drug Conc. 5): 2.572 | 2^-dCq (H3K4me3 ChIP relative to H3 ChIP) (chr2:40281930-40282015 Intragenic (SLC8A1-AS1), Plasmid PRDM9WT, Drug Conc. 10): 2.028 | 2^-dCq [1]: 0.4145 | 2^-dCq [2]: 3.496 | 2^-dCq [3]: 0.3605 | 2^-dCq [4]: 0.4852 | 2^-dCq [5]: 2.263 | 2^-dCq [6]: 0.5507 | 2^-dCq [7]: 0.3297 | 2^-dCq [8]: 5.1 | 2^-dCq [9]: 0.2515 | 2^-dCq [10]: 0.5103 | 2^-dCq (chr8:49932778-49932856 (Intergenic), PRDM9): 4.604 | 2^-dCq (chr8:49932778-49932856 (Intergenic), PRDM9_Cat.Dead): 0.4888 | 2^-dCq (chr12:6643945-6644023 TSS (GAPDH), Empty Vector): 45.392 | 2^-dCq (chr12:6643945-6644023 TSS (GAPDH), PRDM9): 42.4818 | 2^-dCq (chr12:6643945-6644023 TSS (GAPDH), PRDM9_Cat.Dead): 88.4248 | 2^-dCq (chr19:8510167-8510261 TSS (HNRNPM), Empty Vector): 50.4703 | 2^-dCq (chr19:8510167-8510261 TSS (HNRNPM), PRDM9): 42.5896 | 2^-dCq (chr19:8510167-8510261 TSS (HNRNPM), PRDM9_Cat.Dead): 88.2214 | dCq (IP-Input) [1]: 1.27 | dCq (IP-Input) [2]: -1.806 | dCq (IP-Input) [3]: 1.472 | dCq (IP-Input) [4]: 1.0432 | dCq (IP-Input) [5]: -1.178 | dCq (IP-Input) [6]: 0.8606 | dCq (IP-Input) [7]: 1.601 | dCq (IP-Input) [8]: -2.351 | dCq (IP-Input) [9]: 1.992 | dCq (IP-Input) [10]: 0.9707
